Test results: patent EP0666253A1, “N-t-BUTYLANILINE ANALOG AND LIPID LEVEL DEPRESSANT CONTAINING THE SAME” (priority 1992, dated 1994)
Counter-ions that a name gives are not always drawn. Like-named read-outs stand apart in the source and are kept apart here.

Assays:
in vivo = conditions: mouse
Protocol: Acute toxicity was examined in the Litchfield and Wilcoxon's method where 10 ICR male mice were orally given a test compound.
The LD₅₀ of clofibrate was 1600 mg/kg.

lipid level in blood = experiment: Action on the lipid level in blood (rats on high cholesterol feed); format: in vivo, Male Wistar strain rats; conditions: Rattus norvegicus, relative to the control, oral 25 mg/kg/day, starved 24 hours after final administration; for change in vivo at 25 mg/kg/day: high density lipoprotein-cholesterol, read-out: HDL-Ch increase rate
Protocol: Male Wistar strain rats with weights of about 200 g were given a high cholesterol feed containing 1 % cholesterol and 0.5 % cholic acid. Simultaneously, a suspension of a test compound in 5 % aq. gum arabic was orally administered in an amount of 25 mg/kg/day. After the final administration, the animals were starved for 24 hours and then evaluated for serum total cholesterol (TC), high density lipoprotein-cholesterol (HDL-Ch) and serum triglyceride (TG) content. The control group was orally given 5 % aq. solution of gum arabic. […] In Table 4, test compounds Nos. 1 to 11 correspond respectively to the hydrochlorides of the compounds of Examples 1 to 11.

[1] = system: hepatic parenchymal cells; experiment: Action on incorporation of LDL (radioisotope-labeled LDL, primary culture); format: cell-based, male Wistar strain rat; conditions: Rattus norvegicus; relative to the control (DMSO only); test compound 10 µg/ml, incubated 24 hours, then labeled LDL for 4 hours; read-out: incorporation ratio of LDL
Protocol: hepatic cells were separated from the liver of a male Wistar strain rat weighing about 200 g, and the hepatic parenchymal cells were incubated in primary culture. 48 hours thereafter, a solution of a test compound in dimethylsulfoxide (DMSO) (10 µg/ml) was added thereto and incubated for 24 hours. Then, a radioisotope-labeled low density lipoprotein (LDL) was added thereto, and incubation was continued for further 4 hours. The cells were washed with physiological saline and then lysed with sodium dodecyl sulfate (SDS), and their radioactivity was determined in a liquid scintillation counter. The control group was treated in the same manner as above except for the addition of DMSO only. […] In Table 5, the test compounds 1 to 11 correspond respectively to the hydrochlorides of the compounds of Examples 1 to 11.

[2] = serum total cholesterol, suspension in 5 % aq. gum arabic, read-out: TC decrease rate
[3] = serum triglyceride, read-out: TG decrease rate

Structure (SMILES)	LD50 (in vivo; oral, 10 ICR male mice, read-out: LD₅₀)	change in vivo at 25 mg/kg/day (lipid level in blood)	inhibition in vivo at 25 mg/kg/day (lipid level in blood; [2])	inhibition in vivo at 25 mg/kg/day (lipid level in blood; [3])	activation at 10 µg/mL [1]	LD50 (in vivo; male, ICR, po)
CC(C)(C)Nc1ccc(Sc2ccccc2)cc1 [test compound 1, 4-(t-butylamino)diphenylsulfide hydrochloride]	> 5000 mg/kg	39.4%	95.7%	48.5%	65.3%	
CC(C)(C)N(c1ccc(Oc2ccccc2)cc1)S(C)(=O)=O [compound of Reference Example 3, 4-(N-t-butyl)methanesulfonylaminodiphenyl ether]		-0.7%	3.6%	-2.1%	-15.7%	
CCOC(=O)C(C)(C)Oc1ccc(Cl)cc1 [clofibrate]		-1.6%	1.2%	-0.9%	-10.5%	1600 mg/kg
CCN(CC)c1ccc(Sc2ccc(C)cc2)cc1 [compound of Reference Example 4, N,N-diethyl-4-(4-tolylthio)aniline]			-16.2%	30%		
